Assay in all cases: KinomeScan profiling
Assay type in all cases: binding

One assay has as its target CAMK1 (Homo sapiens, UniProt Q14012). Particulars: CAMK1, 1 μM; read-out: % control. Put shortly: (§1)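 Luminescence (RLU) was converted to percent of control, with DMSO set as 100% and a reference compound as 0%. Test compounds were run at 1 μM against 468 kinases. Kinases showing below 35% of control were scored as bound.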
The target in a further assay is CSNK1E (Homo sapiens, UniProt P49674). Particulars: read-out: % control. Put shortly:
as §1

The next assay deals with CSNK2A2 (Homo sapiens, UniProt P19784). Conditions: CSNK2A2, 1 μM; read-out: % control. Put shortly: as §1
Chain of CSNK2A2 (P19784 whole entry): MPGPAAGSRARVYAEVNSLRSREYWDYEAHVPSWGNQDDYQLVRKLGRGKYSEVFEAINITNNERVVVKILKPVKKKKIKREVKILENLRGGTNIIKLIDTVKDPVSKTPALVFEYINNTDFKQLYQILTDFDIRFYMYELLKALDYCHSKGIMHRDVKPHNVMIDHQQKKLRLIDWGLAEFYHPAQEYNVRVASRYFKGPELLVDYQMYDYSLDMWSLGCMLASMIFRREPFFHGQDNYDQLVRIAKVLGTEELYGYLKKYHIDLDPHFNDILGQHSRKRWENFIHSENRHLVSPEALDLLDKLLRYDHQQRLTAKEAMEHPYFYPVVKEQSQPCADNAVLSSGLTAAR
A further assay has as its target HPK1 (Homo sapiens, UniProt Q92918). Particulars: HPK1, 1 μM; read-out: % control. In a few lines: as §1
For the next assay, the target named is T1, IRAK1 (Homo sapiens, UniProt P51617).
T1 construct: purchased KinomeScan®
T1 sequence (P51617 whole entry): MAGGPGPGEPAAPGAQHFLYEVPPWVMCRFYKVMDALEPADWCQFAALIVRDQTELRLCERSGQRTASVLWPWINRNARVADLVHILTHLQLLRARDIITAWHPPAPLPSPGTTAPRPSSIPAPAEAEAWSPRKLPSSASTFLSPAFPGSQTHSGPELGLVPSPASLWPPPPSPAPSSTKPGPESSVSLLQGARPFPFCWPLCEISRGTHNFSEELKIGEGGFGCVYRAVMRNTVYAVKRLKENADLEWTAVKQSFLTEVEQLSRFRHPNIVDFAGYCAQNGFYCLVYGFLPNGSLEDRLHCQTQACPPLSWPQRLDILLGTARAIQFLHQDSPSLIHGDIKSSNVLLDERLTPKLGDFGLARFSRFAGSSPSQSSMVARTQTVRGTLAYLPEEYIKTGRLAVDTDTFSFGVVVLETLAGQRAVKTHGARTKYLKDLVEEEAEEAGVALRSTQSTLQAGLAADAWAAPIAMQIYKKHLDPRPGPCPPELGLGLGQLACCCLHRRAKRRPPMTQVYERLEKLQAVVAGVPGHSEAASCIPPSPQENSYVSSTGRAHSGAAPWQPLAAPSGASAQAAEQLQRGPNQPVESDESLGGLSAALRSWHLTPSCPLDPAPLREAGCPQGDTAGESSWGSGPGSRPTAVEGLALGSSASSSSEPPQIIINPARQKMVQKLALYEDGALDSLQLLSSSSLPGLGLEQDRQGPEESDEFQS
Particulars: IRAK1, 1 μM; read-out: % control. In a few lines:
as §1

For another assay, the target named is MAP3K1 (Homo sapiens, UniProt Q13233). Conditions: MAP3K1, 1 μM; read-out: % control. Put shortly: as §1
Chain of MAP3K1 (Q13233 whole entry): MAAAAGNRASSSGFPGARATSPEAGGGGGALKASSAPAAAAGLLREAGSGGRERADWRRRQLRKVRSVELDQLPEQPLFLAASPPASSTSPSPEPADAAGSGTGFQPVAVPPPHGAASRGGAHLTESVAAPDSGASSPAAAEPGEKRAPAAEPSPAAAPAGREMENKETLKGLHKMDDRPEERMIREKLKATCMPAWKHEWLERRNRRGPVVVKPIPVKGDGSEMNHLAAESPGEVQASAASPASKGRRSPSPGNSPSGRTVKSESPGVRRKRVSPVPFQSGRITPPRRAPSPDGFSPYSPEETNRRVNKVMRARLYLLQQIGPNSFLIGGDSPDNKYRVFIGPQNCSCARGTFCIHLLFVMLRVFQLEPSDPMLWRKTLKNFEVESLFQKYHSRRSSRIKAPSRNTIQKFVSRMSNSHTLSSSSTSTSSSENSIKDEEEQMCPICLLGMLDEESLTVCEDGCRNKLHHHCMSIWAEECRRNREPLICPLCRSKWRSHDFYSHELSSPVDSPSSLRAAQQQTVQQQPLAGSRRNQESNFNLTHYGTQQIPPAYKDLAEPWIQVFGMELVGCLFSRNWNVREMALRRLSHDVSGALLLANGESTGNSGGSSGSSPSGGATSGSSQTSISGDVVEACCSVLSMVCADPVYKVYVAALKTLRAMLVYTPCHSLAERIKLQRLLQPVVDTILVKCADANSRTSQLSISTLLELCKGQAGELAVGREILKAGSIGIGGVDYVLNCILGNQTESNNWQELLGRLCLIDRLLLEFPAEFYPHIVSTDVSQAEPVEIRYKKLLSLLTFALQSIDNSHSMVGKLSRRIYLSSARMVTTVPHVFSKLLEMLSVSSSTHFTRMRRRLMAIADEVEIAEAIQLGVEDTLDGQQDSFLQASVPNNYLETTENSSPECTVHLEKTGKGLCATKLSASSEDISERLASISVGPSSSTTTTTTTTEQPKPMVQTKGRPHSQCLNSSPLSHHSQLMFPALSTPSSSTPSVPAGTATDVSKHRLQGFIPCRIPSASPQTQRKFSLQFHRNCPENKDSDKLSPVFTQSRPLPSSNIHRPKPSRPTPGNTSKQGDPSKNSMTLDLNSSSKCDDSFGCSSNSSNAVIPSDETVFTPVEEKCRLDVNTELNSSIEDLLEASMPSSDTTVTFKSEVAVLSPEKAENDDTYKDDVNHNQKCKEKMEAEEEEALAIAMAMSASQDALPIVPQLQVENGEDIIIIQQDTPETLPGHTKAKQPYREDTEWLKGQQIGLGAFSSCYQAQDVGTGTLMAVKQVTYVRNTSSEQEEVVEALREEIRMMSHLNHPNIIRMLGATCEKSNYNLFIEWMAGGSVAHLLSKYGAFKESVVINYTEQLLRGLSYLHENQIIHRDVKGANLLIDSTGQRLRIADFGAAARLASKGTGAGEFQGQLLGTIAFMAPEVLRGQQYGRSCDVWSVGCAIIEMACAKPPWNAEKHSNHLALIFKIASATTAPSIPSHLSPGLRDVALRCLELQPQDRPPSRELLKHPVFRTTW
The target in a further assay is T2, NLK (Homo sapiens, UniProt Q9UBE8).
T2 sequence (Q9UBE8 1-527): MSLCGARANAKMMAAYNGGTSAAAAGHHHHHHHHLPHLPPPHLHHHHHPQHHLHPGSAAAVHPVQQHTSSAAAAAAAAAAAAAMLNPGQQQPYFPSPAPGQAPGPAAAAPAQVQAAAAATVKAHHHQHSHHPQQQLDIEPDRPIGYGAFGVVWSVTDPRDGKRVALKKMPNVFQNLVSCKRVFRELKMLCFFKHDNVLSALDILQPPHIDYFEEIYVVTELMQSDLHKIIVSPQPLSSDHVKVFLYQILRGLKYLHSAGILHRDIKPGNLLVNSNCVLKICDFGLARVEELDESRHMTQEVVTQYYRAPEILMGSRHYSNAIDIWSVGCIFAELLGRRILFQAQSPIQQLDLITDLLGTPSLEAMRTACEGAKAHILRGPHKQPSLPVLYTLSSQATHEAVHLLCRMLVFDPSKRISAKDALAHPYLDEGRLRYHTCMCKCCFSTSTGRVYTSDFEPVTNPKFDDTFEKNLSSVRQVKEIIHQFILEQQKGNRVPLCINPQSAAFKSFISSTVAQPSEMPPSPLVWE
Particulars: read-out: % control. Put shortly:
as §1

For a further assay, the target named is RET(M918T) (Homo sapiens, UniProt P07949, M918T). Conditions: read-out: % control. Put shortly: as §1
A further assay deals with T3, TLK1 (Homo sapiens, UniProt Q9UKI8).
T3 sequence (Q9UKI8 1-766): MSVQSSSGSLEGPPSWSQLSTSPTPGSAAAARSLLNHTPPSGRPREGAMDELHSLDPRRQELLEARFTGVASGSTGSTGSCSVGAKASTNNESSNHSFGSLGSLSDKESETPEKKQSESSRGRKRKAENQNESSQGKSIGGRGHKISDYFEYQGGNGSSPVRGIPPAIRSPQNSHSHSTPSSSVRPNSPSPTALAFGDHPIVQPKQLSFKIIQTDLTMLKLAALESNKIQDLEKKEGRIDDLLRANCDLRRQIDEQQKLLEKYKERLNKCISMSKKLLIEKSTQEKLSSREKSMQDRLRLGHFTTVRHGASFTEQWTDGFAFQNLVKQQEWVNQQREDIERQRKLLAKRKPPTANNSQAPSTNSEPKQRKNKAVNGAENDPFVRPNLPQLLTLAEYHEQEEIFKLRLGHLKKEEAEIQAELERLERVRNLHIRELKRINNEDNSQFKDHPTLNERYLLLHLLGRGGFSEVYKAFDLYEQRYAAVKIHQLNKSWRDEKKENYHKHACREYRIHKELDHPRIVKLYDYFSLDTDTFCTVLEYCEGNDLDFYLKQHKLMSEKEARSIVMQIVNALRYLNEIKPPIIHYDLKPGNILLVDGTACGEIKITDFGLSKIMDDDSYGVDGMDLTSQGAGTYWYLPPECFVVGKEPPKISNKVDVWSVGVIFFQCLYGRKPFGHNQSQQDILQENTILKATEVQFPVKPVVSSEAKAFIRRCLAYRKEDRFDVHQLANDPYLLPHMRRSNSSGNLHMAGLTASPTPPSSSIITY
Conditions: TLK1, 1 μM; read-out: % control. Put shortly: as §1

A further assay has as its target T4, TNNI3K (Homo sapiens, UniProt Q59H18).
T4 sequence (Q59H18 1-835): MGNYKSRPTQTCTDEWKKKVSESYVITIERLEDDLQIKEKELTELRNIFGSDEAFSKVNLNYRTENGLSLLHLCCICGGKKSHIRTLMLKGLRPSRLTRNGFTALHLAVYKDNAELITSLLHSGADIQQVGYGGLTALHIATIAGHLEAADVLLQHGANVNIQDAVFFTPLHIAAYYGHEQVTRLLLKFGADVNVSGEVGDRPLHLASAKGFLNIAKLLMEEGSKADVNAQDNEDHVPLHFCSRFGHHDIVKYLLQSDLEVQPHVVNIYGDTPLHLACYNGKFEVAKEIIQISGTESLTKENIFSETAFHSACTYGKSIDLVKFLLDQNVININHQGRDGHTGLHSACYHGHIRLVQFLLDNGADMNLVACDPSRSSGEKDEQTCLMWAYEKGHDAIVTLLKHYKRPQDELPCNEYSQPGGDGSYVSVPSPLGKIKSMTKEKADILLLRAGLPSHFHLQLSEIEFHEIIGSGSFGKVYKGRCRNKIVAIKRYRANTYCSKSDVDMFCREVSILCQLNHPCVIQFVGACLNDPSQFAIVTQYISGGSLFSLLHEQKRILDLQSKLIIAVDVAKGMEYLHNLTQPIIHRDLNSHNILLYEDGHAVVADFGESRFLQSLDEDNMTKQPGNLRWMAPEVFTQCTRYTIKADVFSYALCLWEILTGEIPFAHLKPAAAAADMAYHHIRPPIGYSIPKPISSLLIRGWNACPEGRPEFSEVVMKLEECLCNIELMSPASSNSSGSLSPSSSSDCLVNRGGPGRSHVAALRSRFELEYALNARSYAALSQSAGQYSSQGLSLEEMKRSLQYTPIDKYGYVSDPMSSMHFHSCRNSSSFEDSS
Conditions: read-out: % control. Put shortly: as §1

Chain of CAMK1 (Q14012 whole entry): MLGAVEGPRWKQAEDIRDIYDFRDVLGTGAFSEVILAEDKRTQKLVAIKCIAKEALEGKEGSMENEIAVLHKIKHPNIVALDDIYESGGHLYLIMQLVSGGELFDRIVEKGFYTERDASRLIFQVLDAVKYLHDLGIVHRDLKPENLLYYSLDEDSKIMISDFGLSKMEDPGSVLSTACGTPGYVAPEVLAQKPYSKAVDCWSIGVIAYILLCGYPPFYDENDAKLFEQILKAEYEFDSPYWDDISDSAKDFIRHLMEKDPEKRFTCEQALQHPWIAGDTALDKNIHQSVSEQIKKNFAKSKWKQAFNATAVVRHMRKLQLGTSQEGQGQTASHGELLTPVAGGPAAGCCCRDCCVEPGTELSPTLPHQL
Chain of CSNK1E (P49674 whole entry): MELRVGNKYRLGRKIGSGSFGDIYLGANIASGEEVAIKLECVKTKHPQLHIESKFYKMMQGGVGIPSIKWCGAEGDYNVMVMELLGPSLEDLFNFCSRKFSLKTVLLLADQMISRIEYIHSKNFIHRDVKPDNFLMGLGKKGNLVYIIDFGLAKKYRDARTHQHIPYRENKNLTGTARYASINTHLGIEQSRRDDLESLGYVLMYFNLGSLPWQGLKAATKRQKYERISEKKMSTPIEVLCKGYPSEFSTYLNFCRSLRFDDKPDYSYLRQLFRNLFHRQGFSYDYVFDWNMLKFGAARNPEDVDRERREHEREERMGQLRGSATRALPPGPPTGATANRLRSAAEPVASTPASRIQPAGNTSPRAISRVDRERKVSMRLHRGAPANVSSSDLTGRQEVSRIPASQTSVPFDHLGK
Chain of HPK1 (Q92918 whole entry): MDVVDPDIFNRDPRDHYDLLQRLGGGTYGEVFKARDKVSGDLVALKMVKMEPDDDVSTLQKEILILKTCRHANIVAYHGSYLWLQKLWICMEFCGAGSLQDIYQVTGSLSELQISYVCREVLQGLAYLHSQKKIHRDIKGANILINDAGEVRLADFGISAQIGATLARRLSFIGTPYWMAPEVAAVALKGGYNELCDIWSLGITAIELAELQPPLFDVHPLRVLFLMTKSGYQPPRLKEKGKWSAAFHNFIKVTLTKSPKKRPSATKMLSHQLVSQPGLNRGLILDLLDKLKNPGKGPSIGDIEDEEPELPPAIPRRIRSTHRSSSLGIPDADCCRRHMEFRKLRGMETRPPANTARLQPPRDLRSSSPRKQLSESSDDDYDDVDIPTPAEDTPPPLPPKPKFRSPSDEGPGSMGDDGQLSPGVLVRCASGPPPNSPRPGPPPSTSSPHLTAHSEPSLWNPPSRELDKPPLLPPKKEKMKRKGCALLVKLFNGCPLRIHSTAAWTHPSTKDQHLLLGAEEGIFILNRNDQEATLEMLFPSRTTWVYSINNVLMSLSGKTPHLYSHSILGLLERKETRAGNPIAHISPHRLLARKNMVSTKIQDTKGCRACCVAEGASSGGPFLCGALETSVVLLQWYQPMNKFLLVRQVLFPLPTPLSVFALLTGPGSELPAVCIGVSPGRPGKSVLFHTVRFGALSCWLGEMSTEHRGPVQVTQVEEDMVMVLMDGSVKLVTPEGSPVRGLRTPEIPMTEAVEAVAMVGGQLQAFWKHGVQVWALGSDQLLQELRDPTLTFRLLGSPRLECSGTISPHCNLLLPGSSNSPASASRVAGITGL

For `CNc1c(-c2ccc(C(=O)N3CCC(N4CCOCC4)CC3)cc2)cnc2[nH]cc(Cl)c12` [Compound 96, (4-(3-chloro-4-(methylamino)-1H-pyrrolo[2,3-b]pyridin-5-yl)phenyl)(4-morpholinopiperidin-1-yl)methanone], the remaining binding at 1 µM is 87% on CAMK1; 17% at CSNK1E; 92% at CSNK2A2; 84% on HPK1; 41% on IRAK1; 73% on MAP3K1. Besides, the remaining binding at 1 µM on NLK stood at 100%; on RET(M918T), 72%; at TLK1, 95%; at TNNI3K it was 74%.

For `O=C(c1ccc(-c2cnc3[nH]cc(Cl)c3c2NC2CCCC2)cc1)N1CCC(N2CCOCC2)CC1` [Compound 101, (4-(3-chloro-4-(cyclopentylamino)-1H-pyrrolo[2,3-b]pyridin-5-yl)phenyl)(4-morpholinopiperidin-1-yl)methanone], the remaining binding at 1 µM turned out to be 98% at CAMK1; 81% at CSNK1E; 100% at CSNK2A2; 53% on HPK1; 100% at IRAK1; 100% at MAP3K1. Further, the remaining binding at 1 µM was determined as 88% on NLK, 95% on RET(M918T), 90% at TLK1 and 100% at TNNI3K.

For `CNc1c(-c2cnn([C@H]3CCN(C(C)=O)C[C@@H]3F)c2)cnc2[nH]cc(Cl)c12` [Compound 77, 1-((3S,4S)-4-(4-(3-chloro-4-(methylamino)-1H-pyrrolo[2,3-b]pyridin-5-yl)-1H-pyrazol-1-yl)-3-fluoropiperidin-1-yl)ethan-1-one], the remaining binding at 1 µM came to 84% at CAMK1; 68% at CSNK1E; 90% at CSNK2A2; 6.7% on HPK1; 33% at IRAK1; 56% on MAP3K1. In addition, the remaining binding at 1 µM on NLK is 95%; on RET(M918T) it was 33%; at TLK1 it was 95%; on TNNI3K, 65%.
